The results in this text go back to ChEMBL document CHEMBL1156251, “Structure--activity relationships of polymyxin antibiotics” (J Med Chem, 2010).

Converted amounts (≈) assume the structure as drawn. Where a SMILES comes first, the peptide text is derived from it. Bridges are numbered along the chain shown (N, C = ends). [ ]: non-standard residue; d: D form. The star is where a group is joined. Heptanoyl(6-Me) = CC(C)CCCCC(=O)*; Octanoyl(6-Me) = CCC(C)CCCCC(=O)*; Dab = NCC[C@H](N)C(=O)O; Ava = NCCCCC(=O)O

Usually MIC stands for the smallest concentration in the dilution series that meets the test's criterion for growth inhibition. By IC50 is commonly meant the concentration needed to halve the response being measured. A higher IC50 goes with weaker potency in that assay.

For one assay, the system named is Escherichia coli. As to the kind of experiment: Antimicrobial activity against Escherichia coli. The class given is functional.
In a further assay the test system is Salmonella enterica. As to the kind of experiment: Antimicrobial activity against Salmonella enterica. The class given is functional.
The subject of a further assay is Pseudomonas aeruginosa. In words: Antimicrobial activity against Pseudomonas aeruginosa. Format: functional, organism-based.

`CCC(C)CCCCC(=O)N[C@@H](CCN)C(=O)N[C@H](C(=O)N[C@@H](CO)C(=O)N[C@H]1CCNC(=O)[C@H]([C@@H](C)O)NC(=O)[C@H](CCN)NC(=O)[C@H](CCN)NC(=O)[C@H](CC(C)C)NC(=O)[C@@H](CC(C)C)NC(=O)[C@H](CCN)NC1=O)[C@@H](C)O` (stereo partly specified) came in with an MIC against Escherichia coli of 0.8 µg/mL.
In the case of `CC(C)C[C@@H]1NC(=O)[C@@H](CC(C)C)NC(=O)[C@H](CCN)NC(=O)[C@@H](NC(=O)[C@H](CCN)NC(=O)[C@@H](NC(=O)[C@H](CCN)NC(=O)CCCc2cc3ccc4cccc5ccc(c2)c3c45)[C@@H](C)O)CCNC(=O)[C@H]([C@@H](C)O)NC(=O)[C@H](CCN)NC(=O)[C@H](CCN)NC1=O`, the minimal inhibitory concentration (MIC) stood at 2 µM in the assay on Escherichia coli, 2 µM (≈ 2.6 µg/mL) with Salmonella enterica and 1 µM (≈ 1.3 µg/mL) against Pseudomonas aeruginosa.
`CCCCC(=O)N[C@@H](CCN)C(=O)N[C@@H](C(=O)N[C@@H](CCN)C(=O)N[C@H]1CCNC(=O)[C@@H]([C@@H](C)O)NC(=O)[C@H](CCN)NC(=O)[C@H](CCN)NC(=O)[C@H](CC(C)C)NC(=O)[C@@H](Cc2ccccc2)NC(=O)[C@H](CCN)NC1=O)[C@@H](C)O` returned an MIC in the assay with Escherichia coli of 11 µg/mL.
Still for that read-out and setting: to `CCC(C)CCCCC(=O)N[C@@H](CCCCN)C(=O)N[C@H](C(=O)N[C@@H](CCCCN)C(=O)N[C@H]1CCNC(=O)[C@H]([C@@H](C)O)NC(=O)[C@H](CCCCN)NC(=O)[C@H](CCCCN)NC(=O)[C@H](CC(C)C)NC(=O)[C@@H](Cc2ccccc2)NC(=O)[C@H](CCCCN)NC1=O)[C@@H](C)O` (stereo partly specified) belongs 0.2 µg/mL.
Take `CCC(C)CCCCC(=O)N[C@@H](CCN)C(=O)N[C@H](C(=O)N[C@@H](CCN)C(=O)N[C@H]1CCNC(=O)[C@H]([C@@H](C)O)NC(=O)[C@H](CCN)NC(=O)[C@H](CCN)NC(=O)[C@H]([C@@H](C)CC)NC(=O)[C@@H](CC(C)C)NC(=O)[C@H](CCN)NC1=O)[C@@H](C)O` (stereo partly specified): the MIC with Escherichia coli was found to be 0.4 µg/mL.
In the assay with Pseudomonas aeruginosa, `CCC(C)CCCCC(=O)N[C@@H](CCNC=O)C(=O)N[C@H](C(=O)N[C@@H](CCN)C(=O)N[C@H]1CCNC(=O)[C@H]([C@@H](C)O)NC(=O)[C@H](CCN)NC(=O)[C@H](CCN)NC(=O)[C@H](CC(C)C)NC(=O)[C@@H](Cc2ccccc2)NC(=O)[C@H](CCN)NC1=O)[C@@H](C)O` (stereo partly specified) showed an IC50 of 7.6 µg/mL (≈ 6.17 µM).
Same read-out and setting: the figure for `CCC(C)CCCCC(=O)N[C@@H](CCNC=O)C(=O)N[C@H](C(=O)N[C@@H](CCNC=O)C(=O)N[C@H]1CCNC(=O)[C@H]([C@@H](C)O)NC(=O)[C@H](CCN)NC(=O)[C@H](CCN)NC(=O)[C@H](CC(C)C)NC(=O)[C@@H](Cc2ccccc2)NC(=O)[C@H](CCN)NC1=O)[C@@H](C)O` (stereo partly specified) is 4.2 µg/mL (≈ 3.33 µM).
The same measure, in the same setting: to `CCC(C)CCCCC(=O)N[C@@H](CCNC=O)C(=O)N[C@H](C(=O)N[C@@H](CCNC=O)C(=O)N[C@H]1CCNC(=O)[C@H]([C@@H](C)O)NC(=O)[C@H](CCN)NC(=O)[C@H](CCNC=O)NC(=O)[C@H](CC(C)C)NC(=O)[C@@H](Cc2ccccc2)NC(=O)[C@H](CCN)NC1=O)[C@@H](C)O` (stereo partly specified) belongs 6.1 µg/mL (≈ 4.74 µM); to `CCC(C)CCCCC(=O)N[C@@H](CCNC=O)C(=O)N[C@H](C(=O)N[C@@H](CCNC=O)C(=O)N[C@H]1CCNC(=O)[C@H]([C@@H](C)O)NC(=O)[C@H](CCNC=O)NC(=O)[C@H](CCNC=O)NC(=O)[C@H](CC(C)C)NC(=O)[C@@H](Cc2ccccc2)NC(=O)[C@H](CCN)NC1=O)[C@@H](C)O` (stereo partly specified), 42 µg/mL (≈ 31.9 µM).
In the assay with Pseudomonas aeruginosa, `CCC(C)CCCCC(=O)N[C@@H](CCNC=O)C(=O)N[C@H](C(=O)N[C@@H](CCNC=O)C(=O)N[C@H]1CCNC(=O)[C@H]([C@@H](C)O)NC(=O)[C@H](CCNC=O)NC(=O)[C@H](CCNC=O)NC(=O)[C@H](CC(C)C)NC(=O)[C@@H](Cc2ccccc2)NC(=O)[C@H](CCNC=O)NC1=O)[C@@H](C)O` (stereo partly specified) returned a half-inhibitory concentration (IC50) of 60 µg/mL (≈ 44.7 µM).
On the same count and under the same terms, the figure for `CCC(C)CCCCC(=O)N[C@@H](CCNC(N)=O)C(=O)N[C@H](C(=O)N[C@@H](CCNC(N)=O)C(=O)N[C@H]1CCNC(=O)[C@H]([C@@H](C)O)NC(=O)[C@H](CCNC(N)=O)NC(=O)[C@H](CCNC(N)=O)NC(=O)[C@H](CC(C)C)NC(=O)[C@@H](Cc2ccccc2)NC(=O)[C@H](CCN)NC1=O)[C@@H](C)O` (stereo partly specified) is 80 µg/mL (≈ 58.2 µM).
On to `CCCC1CCC(C(=O)N[C@@H](CCN)C(=O)N[C@H](C(=O)N[C@@H](CCN)C(=O)N[C@H]2CCNC(=O)[C@H]([C@@H](C)O)NC(=O)[C@H](CCN)NC(=O)[C@H](CCN)NC(=O)[C@H](CC(C)C)NC(=O)[C@@H](Cc3ccccc3)NC(=O)[C@H](CCN)NC2=O)[C@@H](C)O)CC1` (stereo partly specified), for which the MIC with Escherichia coli came out at 4 µM; in the assay on Salmonella enterica, 4 µM (≈ 4.86 µg/mL); in the assay on Pseudomonas aeruginosa, 2 µM (≈ 2.43 µg/mL).
Regarding `CCCC1CCC(C(=O)N[C@@H](CCN)C(=O)N[C@H](C(=O)N[C@@H](CCN)C(=O)N[C@H]2CCNC(=O)[C@H]([C@@H](C)O)NC(=O)[C@H](CCN)NC(=O)[C@H](CCN)NC(=O)[C@H](CC(C)C)NC(=O)[C@@H](CC(C)C)NC(=O)[C@H](CCN)NC2=O)[C@@H](C)O)CC1` (stereo partly specified), the MIC was 8 µM with Escherichia coli, 8 µM (≈ 9.45 µg/mL) in the assay with Salmonella enterica and 2 µM (≈ 2.36 µg/mL) with Pseudomonas aeruginosa.
In the assay on Escherichia coli, `CCC(C)CCCCCOC(=O)[C@H](CCCCN)NC(=O)C(NC(=O)[C@H](CCCCN)NC(=O)[C@H](CCCCN)NC(=O)[C@@H](NC(=O)[C@H](CCCCN)NC(=O)[C@@H](CCCCN)NC(=O)[C@@H](N)CC(C)C)[C@@H](C)O)[C@@H](C)O` (single isomer, unassigned) showed an MIC of 50 µg/mL.
`CCC(C)CCCCCOC(=O)[C@H](CCCCN)NC(=O)C(NC(=O)[C@H](CCCCN)NC(=O)[C@H](CCCCN)NC(=O)[C@@H](NC(=O)[C@H](CCCCN)NC(=O)[C@@H](CCCCN)NC(=O)[C@H](CC(C)C)NC(=O)[C@@H](CCCCN)NC(=O)[C@@H](N)CC(C)C)[C@@H](C)O)[C@@H](C)O` (single isomer, unassigned) gave an MIC in the assay with Escherichia coli of 100 µg/mL.
On the same count and under the same terms, to `CCC(C)CCCCC(=O)N[C@@H](CCN)C(=O)N[C@H](C(=O)N[C@@H](CCN)C(=O)N[C@H]1CCNC(=O)[C@H]([C@@H](C)O)NC(=O)[C@H](CCN)NC(=O)[C@H](CCN)NC(=O)CCCCNC(=O)[C@H](CCN)NC1=O)[C@@H](C)O` (stereo partly specified) ({Octanoyl(6-Me)}-[Dab]T[Dab][Dab][Dab][Ava][Dab][Dab]T; lactam 4-C) belongs 500 µg/mL.
Consider `CCC(C)CCCCC(=O)N[C@@H](CCNc1ccc([N+](=O)[O-])cc1[N+](=O)[O-])C(=O)N[C@@H](C(=O)N[C@@H](CCNc1ccc([N+](=O)[O-])cc1[N+](=O)[O-])C(=O)N[C@H]1CCNC(=O)[C@@H]([C@@H](C)O)NC(=O)[C@H](CCNc2ccc([N+](=O)[O-])cc2[N+](=O)[O-])NC(=O)[C@H](CCNc2ccc([N+](=O)[O-])cc2[N+](=O)[O-])NC(=O)[C@H](CC(C)C)NC(=O)[C@@H](Cc2ccccc2)NC(=O)[C@H](CCN)NC1=O)[C@@H](C)O` (stereo partly specified) [2,4-DINITROPHENYL POLYMYXIN B], for which the IC50 in the assay with Pseudomonas aeruginosa came out at 73 µg/mL (≈ 39.1 µM).
In the case of `CCCC(=O)N[C@@H](CCN)C(=O)N[C@@H](C(=O)N[C@@H](CCN)C(=O)N[C@H]1CCNC(=O)[C@@H]([C@@H](C)O)NC(=O)[C@H](CCN)NC(=O)[C@H](CCN)NC(=O)[C@H](CC(C)C)NC(=O)[C@@H](Cc2ccccc2)NC(=O)[C@H](CCN)NC1=O)[C@@H](C)O` [BUTANOYL FATTY ACYL POLYMYXIN B], the MIC in the assay on Escherichia coli is 23 µg/mL.
The same measure, in the same setting: to `CC(C)CCCCC(=O)N[C@@H](CCN)C(=O)N[C@H](C(=O)N[C@@H](CCN)C(=O)N[C@H]1CCNC(=O)[C@H]([C@@H](C)O)NC(=O)[C@H](CCN)NC(=O)[C@H](CCN)NC(=O)[C@H](CC(C)C)NC(=O)[C@@H](CC(C)C)NC(=O)[C@H](CCN)NC1=O)[C@@H](C)O` [COLISTIN B] ({Heptanoyl(6-Me)}-[Dab]T[Dab][Dab][Dab][dL]L[Dab][Dab]T; lactam 4-C) belongs 1.6 µg/mL.
In the case of `CCC(C)CCCCC(=O)N[C@@H](CC=O)C(=O)N[C@H](C(=O)N[C@@H](CC=O)C(=O)N[C@H]1CCNC(=O)[C@H]([C@@H](C)O)NC(=O)[C@H](CC=O)NC(=O)[C@H](CC=O)NC(=O)[C@H](CC(C)C)NC(=O)[C@@H](Cc2ccccc2)NC(=O)[C@H](CC=O)NC1=O)[C@@H](C)O` (stereo partly specified) [Desamino Polymyxin B], the concentration for half-maximal inhibition (IC50) in the assay with Pseudomonas aeruginosa is 70 µg/mL (≈ 58.4 µM).
In the assay with Escherichia coli, `CCCCCC(=O)N[C@@H](CCN)C(=O)N[C@@H](C(=O)N[C@@H](CCN)C(=O)N[C@H]1CCNC(=O)[C@@H]([C@@H](C)O)NC(=O)[C@H](CCN)NC(=O)[C@H](CCN)NC(=O)[C@H](CC(C)C)NC(=O)[C@@H](Cc2ccccc2)NC(=O)[C@H](CCN)NC1=O)[C@@H](C)O` [HEXANOYL FATTY ACYL POLYMYXIN B] came in with an MIC of 0.7 µg/mL.
As for `CCC(C)CCCCC(=O)N[C@@H](CCNCc1c(COP(=O)(O)O)cnc(C)c1O)C(=O)N[C@@H](C(=O)N[C@@H](CCNCc1c(COP(=O)(O)O)cnc(C)c1O)C(=O)N[C@H]1CCNC(=O)[C@@H]([C@@H](C)O)NC(=O)[C@H](CCNCc2c(COP(=O)(O)O)cnc(C)c2O)NC(=O)[C@H](CCNCc2c(COP(=O)(O)O)cnc(C)c2O)NC(=O)[C@H](CC(C)C)NC(=O)[C@@H](Cc2ccccc2)NC(=O)[C@H](CCN)NC1=O)[C@@H](C)O` (stereo partly specified) [PYRIDOXAL POLYMYXIN B], in the assay with Pseudomonas aeruginosa, the IC50 stood at 10.7 µg/mL (≈ 5.03 µM).
Same read-out and setting: to `CCC(C)CCCCC(=O)N[C@@H](CCNc1cc(N)c([N+](=O)[O-])cc1[N+](=O)[O-])C(=O)N[C@@H](C(=O)N[C@@H](CCNc1cc(N)c([N+](=O)[O-])cc1[N+](=O)[O-])C(=O)N[C@H]1CCNC(=O)[C@@H]([C@@H](C)O)NC(=O)[C@H](CCNc2cc(N)c([N+](=O)[O-])cc2[N+](=O)[O-])NC(=O)[C@H](CCNc2cc(N)c([N+](=O)[O-])cc2[N+](=O)[O-])NC(=O)[C@H](CC(C)C)NC(=O)[C@@H](Cc2ccccc2)NC(=O)[C@H](CCN)NC1=O)[C@@H](C)O` (stereo partly specified) [TETRA 5-AMINO-2,4-DINITROPHENYL POLYMYXIN B] belongs 68 µg/mL (≈ 35.3 µM).
Same read-out and setting: the figure for `CCC(C)CCCCC(=O)N[C@@H](CCNC(=O)n1ccc2ccccc21)C(=O)N[C@@H](C(=O)N[C@@H](CCNC(=O)n1ccc2ccccc21)C(=O)N[C@H]1CCNC(=O)[C@@H]([C@@H](C)O)NC(=O)[C@H](CCNC(=O)n2ccc3ccccc32)NC(=O)[C@H](CCNC(=O)n2ccc3ccccc32)NC(=O)[C@H](CC(C)C)NC(=O)[C@@H](Cc2ccccc2)NC(=O)[C@H](CCN)NC1=O)[C@@H](C)O` (stereo partly specified) [TETRA INDOLE ALDEHYDE POLYMYXIN B] is 10.2 µg/mL (≈ 5.74 µM).
On to COLISTIN, for which inhibition of growth against Escherichia coli (MIC) required 0.8 µg/mL.
